Measured values as given in ChEMBL document CHEMBL1150759, “[Cytotoxic and antibacterial substances from the ascidian Aplidium antillense]” (J Nat Prod, 1988).
Converted amounts (≈) assume the structure as drawn.

Assays:
Serratia marcescens = assay: Antimicrobial activity against Serratia marcescens; type: functional
Staphylococcus aureus [1] = assay: Antimicrobial activity against methicillin-resistant Staphylococcus aureus; type: functional
Morganella morganii = assay: Antimicrobial activity against Morganella morganii; type: functional
Klebsiella pneumoniae = assay: Antimicrobial activity against Klebsiella pneumoniae; type: functional
Staphylococcus aureus [2] = assay: Antimicrobial activity against methicillin-sensitive Staphylococcus aureus; type: functional
Proteus mirabilis = assay: Antimicrobial activity against Proteus mirabilis; type: functional
P388 = assay: Cytotoxicity against mouse P388 cells; type: functional, cell-based
Pseudomonas aeruginosa = assay: Antimicrobial activity against Pseudomonas aeruginosa; type: functional
KB = assay: Cytotoxicity against human KB cells; type: functional, cell-based
Escherichia coli = assay: Antimicrobial activity against Escherichia coli; type: functional
Enterococcus faecalis = assay: Antimicrobial activity against Streptococcus faecalis; type: functional

Structure (SMILES)	MIC (Serratia marcescens) [mg/L]	MBC/MIC ratio (Staphylococcus aureus [1])	MIC (Staphylococcus aureus [1]) [mg/L]	MIC (Morganella morganii) [mg/L]	MIC (Klebsiella pneumoniae) [mg/L]	MBC/MIC ratio (Staphylococcus aureus [2])	MIC (Staphylococcus aureus [2]) [mg/L]	MIC (Proteus mirabilis) [mg/L]	IC50 (P388) [mg/L]	MIC (Pseudomonas aeruginosa) [mg/L]	IC50 (KB) [mg/L]	MIC (Escherichia coli) [mg/L]	MBC/MIC ratio (Enterococcus faecalis)	MIC (Enterococcus faecalis) [mg/L]
CC(C)=CCCC1(C)C=Cc2cc(O)ccc2O1 (stereo not drawn) [CORDIACHROMENE A]	> 256	2	64 (≈ 262 µM)	> 256	> 256	2	64 (≈ 262 µM)	> 256	0.5 (≈ 2.05 µM)	> 256	36 (≈ 147 µM)	> 256	1	64 (≈ 262 µM)
CC(C)=CCC/C(C)=C/Cc1cc(O)ccc1O [GEROQUINOL]	128 (≈ 520 µM)	2	64 (≈ 260 µM)	> 256	> 256	2	64 (≈ 260 µM)	> 256	0.034 (≈ 0.138 µM)	> 256	4.3 (≈ 17.5 µM)	> 256	1	64 (≈ 260 µM)
